Data on 25 molecules can be found in patent US12083101B2, “Biaryl derivatives as YAP/TAZ-TEAD protein-protein interaction inhibitors” (Novartis AG, priority 2020, dated 2024).

Usually IC50 stands for the concentration that gives 50% inhibition.

Molecules are shown by their SMILES.

Chain of Avi-humanTEAD4 217-434 / Cy5 labeled humanYAP 60-100 (Q15561 217-434): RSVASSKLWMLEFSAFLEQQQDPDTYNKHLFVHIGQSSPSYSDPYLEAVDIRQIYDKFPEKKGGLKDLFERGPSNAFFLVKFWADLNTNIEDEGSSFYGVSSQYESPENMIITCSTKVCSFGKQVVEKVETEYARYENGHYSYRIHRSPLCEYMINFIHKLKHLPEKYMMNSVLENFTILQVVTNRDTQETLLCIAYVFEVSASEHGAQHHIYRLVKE

This test has as its target Avi-humanTEAD4 217-434 / Cy5 labeled humanYAP 60-100 (Homo sapiens (Human), UniProt Q15561). As to the kind of experiment: TR-FRET YAP-TEAD4 in-vitro biochemical assay. In kind it is binding. The note with it: 1 nM Avi-humanTEAD4 217-434, 20 nM Cy5-humanYAP 60-100, 1 h room temperature. On the procedure: N-terminus Cy5 labeled humanYAP^60-100 (20 nM) was then added to this preparation. Compounds were dissolved at 10 mM in 100% DMSO and serial dilutions were made in 100% DMSO. The diluted compound solutions were incubated in white 384-well plates (Greiner Bio-One) for 1 h at room temperature with the above described mix. The final DMSO concentration present in the assay was 1%. […] The IC50 values were estimated by fitting the data by nonlinear fit regression (GraphPad Prism).
Regarding `C[C@@H]1C[C@H](NC[C@@]2(c3ccccc3)Cc3c(cc(F)c(Cl)c3-c3c(C(N)=O)ccc(OCCO)c3F)O2)C[C@H](C)O1` (atropisomer, axis not shown) [Example 65a, 2-((2S,4S)-5-chloro-2-((((2R,4r,6S)-2,6-dimethyltetrahydro-2H-pyran-4-yl)amino)methyl)-6-fluoro-2-phenyl-2,3-dihydrobenzofuran-4-yl)-3-fluoro-4-(2-hydroxyethoxy)benzamide], half-maximal inhibition (IC50) was put at 4 nM. Next, `CNC[C@@]1(c2ccccc2)Cc2c(cc(F)c(Cl)c2-c2c(C(=O)NC)cnc(OCCO)c2F)O1` (atropisomer, axis not shown) [Example 53, 4-((2S,4S)-5-chloro-6-fluoro-2-((methylamino)methyl)-2-phenyl-2,3-dihydrobenzofuran-4-yl)-5-fluoro-6-(2-hydroxyethoxy)-N-methylnicotinamide]: 6 nM; `NCC1(c2ccccc2)Oc2ccc(Cl)c(-c3c(F)cccc3C(N)=O)c2O1` (single isomer, unassigned) [Example 133, 2-(2-(Aminomethyl)-5-chloro-2-phenylbenzo[d][1,3]dioxol-4-yl)-3-fluorobenzamide]: 695 nM; `NC(=O)c1ccc(OC(F)F)c(F)c1-c1c(Cl)c(F)cc2c1C[C@@](CNC1CCC(O)(CF)CC1)(c1ccccc1)O2` (single isomer, unassigned) [Example 55b]: 2 nM. Next, `Cc1cccc(C(N)=O)c1-c1c(Cl)ccc2c1C[C@@](CN)(c1ccccc1)O2` (atropisomer, axis not shown) [Example 6, 2-((2S,4R)-2-(aminomethyl)-5-chloro-2-phenyl-2,3-dihydrobenzofuran-4-yl)-3-methylbenzamide]: 376 nM; `CO[C@H]1c2c(cc(F)c(Cl)c2-c2c(C(N)=O)ccc(OC(F)F)c2F)O[C@]1(CN[C@H]1CC[C@H](O)CC1)c1ccccc1` (relative stereo) [Example 102a, 2-((2S,3S,4S)-5-Chloro-6-fluoro-2-((((trans)-4-hydroxycyclohexyl)amino)methyl)-3-methoxy-2-phenyl-2,3-dihydrobenzofuran-4-yl)-4-(difluoromethoxy)-3-fluorobenzamide]: 3 nM; `COCCNC[C@@]1(c2ccccc2)Cc2c(cc(F)c(Cl)c2-c2c(C(N)=O)ccc(OC(F)F)c2F)O1` (atropisomer, axis not shown) [Example 77, 2-((2S,4S)-5-chloro-6-fluoro-2-(((2-methoxyethyl)amino)methyl)-2-phenyl-2,3-dihydrobenzofuran-4-yl)-4-(difluoromethoxy)-3-fluorobenzamide]: 71 nM. `NC(=O)c1ccc(OC(F)F)c(F)c1-c1c(Cl)c(F)cc2c1C[C@@](CNCC1CC1)(c1ccccc1)O2` (atropisomer, axis not shown) [Example 50, 2-((2S,4S)-5-Chloro-2-(((cyclopropylmethyl)amino)methyl)-6-fluoro-2-phenyl-2,3-dihydrobenzofuran-4-yl)-4-(difluoromethoxy)-3-fluorobenzamide]: the IC50 was found to be 30 nM. Next, `COc1ccc(C(N)=O)c(-c2c(Cl)c(F)cc3c2C[C@](c2ccccc2)(C2COCCN2)O3)c1F` (single isomer, unassigned) [Example 163]: 130 nM; `NC(=O)c1ccc(OC(F)F)c(F)c1-c1c(Cl)c(F)cc2c1C[C@@](CNC1CC3(CC(O)C3)C1)(c1ccccc1)O2` (single isomer, unassigned) [Example 85b]: 7 nM. Turning to `NC[C@@]1(c2ccccc2)Cc2c(cc(F)c(Cl)c2-c2c(F)cccc2C(N)=O)O1` [Example 32b, 2-((2S,4R)-2-(aminomethyl)-5-chloro-6-fluoro-2-phenyl-2,3-dihydrobenzofuran-4-yl)-3-fluorobenzamide], the IC50 is over 100000 nM.

`C[C@H]1c2c(cc(F)c(Cl)c2-c2c(C(N)=O)ccc(OC(F)F)c2F)O[C@]1(CN[C@H]1CC[C@H](O)CC1)c1ccccc1` (atropisomer, axis not shown) [Example 115a, 2-((2S,3S,4S)-5-chloro-6-fluoro-2-((((trans)-4-hydroxycyclohexyl)amino)methyl)-3-methyl-2-phenyl-2,3-dihydrobenzofuran-4-yl)-4-(difluoromethoxy)-3-fluorobenzamide] registered an IC50 of 2 nM. `C[C@H]1c2c(cc(F)c(Cl)c2-c2c(C(N)=O)ccc(OCCO)c2F)O[C@]1(CN)c1ccccc1` (atropisomer, axis not shown) [Example 107, 2-((2S,3S,4S)-2-(aminomethyl)-5-chloro-6-fluoro-3-methyl-2-phenyl-2,3-dihydrobenzofuran-4-yl)-3-fluoro-4-(2-hydroxyethoxy)benzamide] yielded an IC50 of 2 nM. In turn, `CO[C@H]1c2c(cc(F)c(Cl)c2-c2c(C(N)=O)ccc(OC(F)F)c2F)O[C@]1(CN[C@H]1CC[C@@H](O)CC1)c1ccccc1` (relative stereo) [Example 102b, 2-((2S,3S,4S)-5-chloro-6-fluoro-2-((((cis)-4-hydroxycyclohexyl)amino)methyl)-3-methoxy-2-phenyl-2,3-dihydrobenzofuran-4-yl)-4-(difluoromethoxy)-3-fluorobenzamide] yielded an IC50 of 4 nM. `NC(=O)c1ccc(OC(F)F)c(F)c1-c1c(Cl)c(F)cc2c1C[C@@](CNC1CCC(O)(CF)CC1)(c1ccccc1)O2` (single isomer, unassigned) [Example 55a]: the IC50 was under 1 nM.

Regarding `CC(C)(C)NC[C@@]1(c2ccccc2)Cc2c(cc(F)c(Cl)c2-c2c(C(N)=O)ccc(OC(F)F)c2F)O1` (atropisomer, axis not shown) [Example 73, 2-((2S,4S)-2-((tert-butylamino)methyl)-5-chloro-6-fluoro-2-phenyl-2,3-dihydrobenzofuran-4-yl)-4-(difluoromethoxy)-3-fluorobenzamide], the IC50 was found to be 14 nM. Next, `C[C@H]1c2c(cc(F)c(Cl)c2-c2c(C(N)=O)ccc(OC(F)F)c2F)O[C@]1(CN)c1ccccc1` (atropisomer, axis not shown) [Example 105, 2-((2S,3S,4S)-2-(Aminomethyl)-5-chloro-6-fluoro-3-methyl-2-phenyl-2,3-dihydrobenzofuran-4-yl)-4-(difluoromethoxy)-3-fluorobenzamide]: 2 nM; `CCc1ccc(C(N)=O)c(-c2c(Cl)c(F)cc3c2C[C@@](CN[C@H]2CC[C@@](C)(O)CC2)(c2ccccc2)O3)c1F` (atropisomer, axis not shown) [Example 68b, 2-((2S,4S)-5-chloro-6-fluoro-2-((((cis)-4-hydroxy-4-methylcyclohexyl)amino)methyl)-2-phenyl-2,3-dihydrobenzofuran-4-yl)-4-ethyl-3-fluorobenzamide]: 12 nM; `NC(=O)c1ccc(OC(F)F)c(F)c1-c1c(Cl)c(F)cc2c1[C@H](O)[C@@](CN[C@H]1CC[C@H](O)CC1)(c1ccccc1)O2` (relative stereo) [Example 100a, 2-((2S,3S,4S)-5-Chloro-6-fluoro-3-hydroxy-2-((((trans)-4-hydroxycyclohexyl)amino)methyl)-2-phenyl-2,3-dihydrobenzofuran-4-yl)-4-(difluoromethoxy)-3-fluorobenzamide]: 2 nM. Molecule `CNC(=O)c1cnc(O)c(F)c1-c1c(Cl)c(F)cc2c1C[C@](c1ccccc1)([C@@H]1CCCN1)O2` [Example 157, 4-((2S,4S)-5-chloro-6-fluoro-2-phenyl-2-((S)-pyrrolidin-2-yl)-2,3-dihydrobenzofuran-4-yl)-5-fluoro-6-hydroxy-N-methylnicotinamide] came in with an IC50 of 75 nM. Next, `C[C@@H](CO)NC[C@@]1(c2ccccc2)Cc2c(cc(F)c(Cl)c2-c2c(C(N)=O)ccc(OC(F)F)c2F)O1` (atropisomer, axis not shown) [Example 75, 2-((2S,4S)-5-chloro-6-fluoro-2-((((S)-1-hydroxypropan-2-yl)amino)methyl)-2-phenyl-2,3-dihydrobenzofuran-4-yl)-4-(difluoromethoxy)-3-fluorobenzamide]: 38 nM; `C[C@]1(O)CC[C@@H](NC[C@@]2(c3ccccc3)Cc3c(cc(F)c(Cl)c3-c3c(C(N)=O)ccc(OCc4ncccn4)c3F)O2)CC1` (atropisomer, axis not shown) [Example 71b, 2-((2S,4S)-5-chloro-6-fluoro-2-((((cis)-4-hydroxy-4-methylcyclohexyl)amino)methyl)-2-phenyl-2,3-dihydrobenzofuran-4-yl)-3-fluoro-4-(pyrimidin-2-ylmethoxy)benzamide]: 1 nM. Next, `CNC(=O)[C@H]1CC[C@@H](NC[C@@]2(c3ccccc3)Cc3c(ccc(Cl)c3-c3c(F)cccc3C(N)=O)O2)CC1` (relative stereo) [Example 139b, 2-((2S,4S)-5-chloro-2-((((cis)-4-(methylcarbamoyl)cyclohexyl)amino)methyl)-2-phenyl-2,3-dihydrobenzofuran-4-yl)-3-fluorobenzamide]: 11 nM; `C[C@H]1c2c(cc(F)c(Cl)c2-c2c(C(N)=O)ccc(OC(F)F)c2F)O[C@]1(CN[C@H]1CC[C@@H](O)CC1)c1ccccc1` (atropisomer, axis not shown) [Example 115b, 2-((2S,3S,4S)-5-chloro-6-fluoro-2-((((cis)-4-hydroxycyclohexyl)amino)methyl)-3-methyl-2-phenyl-2,3-dihydrobenzofuran-4-yl)-4-(difluoromethoxy)-3-fluorobenzamide]: 2 nM; `COC(=O)[C@H]1CC[C@H](NC[C@@]2(c3ccccc3)Cc3c(ccc(Cl)c3-c3c(C(N)=O)ccc(F)c3F)O2)CC1` (relative stereo) [Example 137b, methyl (trans)-4-((((2S,4S)-4-(6-carbamoyl-2,3-difluorophenyl)-5-chloro-2-phenyl-2,3-dihydrobenzofuran-2-yl)methyl)amino)cyclohexane-1-carboxylate]: 6 nM.
